Measured values from ChEMBL document CHEMBL1148100, “Structure-activity relationships of norditerpenoid alkaloids occurring in toxic larkspur (Delphinium) species” (J Nat Prod, 1995).

Test: Toxicity in iv dosed Swiss-Webster mouse
Assay type: organism-based
Details: in vivo

Row | SMILES | LD50
1 | CCN1C[C@]2(CO)CC[C@H](OC)[C@@]34[C@@H]5C[C@H]6[C@H](OC)[C@@H]5[C@](O)(C[C@@H]6OC)[C@](O)([C@@H](OC)[C@H]23)[C@@H]14 [LYCOCTONINE] | 444 mg/kg
2 | CCN1C[C@]2(COC(=O)c3ccccc3N3C(=O)C[C@H](C)C3=O)CC[C@H](OC)[C@@]34[C@@H]5C[C@H]6[C@H](OC)[C@@H]5[C@](O)(C[C@@H]6OC)[C@](O)([C@@H](OC)[C@H]23)[C@@H]14 [METHYLLYCACONITINE] | 7.5 mg/kg
3 | CO[C@H]1[C@@H]2C[C@@H]3[C@H]1[C@](O)(C[C@@H]2OC)[C@]1(O)C2NC[C@]4(COC(=O)c5ccccc5N5C(=O)CC(C)C5=O)CC[C@H](OC)[C@@]23[C@@H]4[C@@H]1OC (stereo partly drawn) | 100 mg/kg
4 | CO[C@H]1[C@@H]2C[C@@H]3[C@H]1[C@](O)(C[C@@H]2OC)[C@]1(O)C2NC(=O)[C@]4(COC(=O)c5ccccc5N5C(=O)CC(C)C5=O)CC[C@H](OC)[C@@]23[C@@H]4[C@@H]1OC (stereo partly drawn) [ZALILINE] | > 230 mg/kg
5 | CO[C@H]1[C@@H]2C[C@@H]3[C@H]1[C@](O)(C[C@@H]2OC)[C@]1(O)C2N=C[C@]4(COC(=O)c5ccccc5N5C(=O)CC(C)C5=O)CC[C@H](OC)[C@@]23[C@@H]4[C@@H]1OC (stereo partly drawn) [ANHWEIDELPHININE] | > 177 mg/kg
6 | CCN1C[C@]2(COC(=O)c3ccccc3N)CC[C@H](OC)[C@]34C1[C@](O)([C@@H](OC)[C@H]23)[C@@]1(O)C[C@H](OC)[C@H]2C[C@@H]4[C@@H]1[C@H]2OC [ANTHRANOYLLYCOCTONINE] | 20.8 mg/kg
7 | CCN1C[C@]2(COC(=O)c3ccccc3N3C(=O)C[C@H](C)C3=O)CC[C@H](OC)[C@]34C5C[C@@H]6[C@@H](OC)C[C@@](O)(C5[C@H]6OC(C)=O)[C@](O)(C13)[C@@H](OC)C24 (stereo partly drawn) [NUDICAULINE] | 2.7 mg/kg
8 | CCN1C[C@]2(C)CC[C@H](OC)[C@@]34C1[C@]1(OCO[C@@]15C[C@H](OC)[C@H]1C[C@]3(O)[C@@H]5[C@H]1OC)[C@@H](OC(C)=O)[C@H]24 [DELTALINE] | 200 mg/kg
9 | CO[C@H]1[C@@H]2C[C@]3(O)[C@H]1[C@@]1(C[C@@H]2OC)OCO[C@]12C1NC[C@]4(C)CC[C@H](OC)[C@@]13[C@@H]4[C@@H]2OC(C)=O | 210 mg/kg
10 | CCN1C[C@]2(C)CC[C@H](OC)[C@@]34C1[C@]1(OCO[C@@]15C[C@H](OC)[C@H]1C[C@]3(O)[C@@H]5[C@H]1O)[C@@H](OC(C)=O)[C@H]24 [DICTYOCARPINE] | 283 mg/kg
11 | CCN1C[C@]2(COC(=O)c3ccccc3N3C(=O)CC(C)C3=O)CC[C@H](OC)[C@]34C1[C@](O)([C@@H](OC)[C@H]23)[C@@]1(O)C[C@H](OC)[C@H]2C[C@@H]4[C@@H]1[C@H]2O (stereo partly drawn) | 4 mg/kg
12 | CCN1C[C@]2(COC(=O)c3ccccc3N3C(=O)C[C@H](C)C3=O)CC[C@H](OC)[C@@]34C1[C@@]1(OCO[C@@]15C[C@H](OC)[C@H]1C[C@@H]3[C@@H]5[C@H]1OC)[C@@H](OC)[C@H]24 [ELATINE] | 9.2 mg/kg
13 | CCN1C[C@]2(COC(=O)c3ccccc3N3C(=O)CC(C)C3=O)CC[C@H](OC)[C@]34C1[C@](O)([C@@H](OC)[C@H]23)[C@@]1(O)C[C@H](OC)[C@H]2C[C@@H]4[C@@H]1C2=O (stereo partly drawn) [BARBININE] | 57 mg/kg
